# Assay results reported in patent publication US10786583B2, “Pre-saturation of the liver and subsequent administration of the contrast agent” (B. Braun Melsungen AG, priority 2013, dated 2020).
# Key:
# [1] = Solubility of perfluorocarbon contrast agents in oil phase; assay type: physicochemical
# Excerpt: Perfluoroctylbromide (PFOB) is a known contrast agent for the magnetic resonance spectroscopy.
# [2] = Density measurement of mixtures of MCT and F6H8; assay type: physicochemical; details: mixture with about 61.5 wt.-% MCT, based on total weight of the oil phase
# Excerpt: By adapting the density of the oil phase to the density of the aqueous phase coalescence phenomena of the droplets as well as sedimentation phenomena, which destabilize the emulsion, can be decreased.
structure (smiles),measurement,setting,value
"FC(F)(F)C(F)(F)C(F)(F)C(F)(F)C(F)(F)C(F)(F)C(F)(F)C(F)(F)Br [PFOB, Perfluoroctylbromide, reference compound]",Solubility in MCT,[1],cannot be dissolved in MCT
"FC(F)(F)C(F)(F)C(F)(F)C(F)(F)C(F)(F)C(F)(F)C(F)(F)C(F)(F)C(F)(F)C(F)(F)Br [PFDB, perfluorodecylbromide]",Solubility in PFOB,[1],can be dissolved in PFOB
"CCCCCCCCC(F)(F)C(F)(F)C(F)(F)C(F)(F)C(F)(F)C(F)(F)F [Example F6H8, perfluorohexyloctane]",Content of F6H8 in oil phase at which density of the oil mixture corresponds to the density of the aqueous phase,[2],about 38.5 wt.-%
